The source of these data is US20050208058A1, “Compositions and methods for modulating cell division” (priority 2003, published 2005).

d = 2'-deoxy (DNA)

What all share (format): cell-based, human
For series [1], the system named is RPE cells. Put plainly: FACS of cells treated in tandem with two siRNAs (p53 dependence). The conditions noted are these: tandem treatment sip53 then siGCP2; FIG. 6A. As for the experimental part: For flow cytometry (i.e., fluorescence-activated cell sorter or FACS) experiments, siRNAs were delivered to cells as described above, and were incubated for 50-70 hours. To synchronize cells, nocodazole was added to the cells to a concentration of 5 μg/mL for 12 hours. Cells were stained with propidium iodide and analyzed by flow cytometry (FACSCAN; Becton Dickinson) using FLOJO® software (Tree Star, Inc., Ashland, Oreg.).
(§1) A number of experiments were conducted to determine if p53 is required for the cell cycle arrest phenotype described herein. FACS analysis of tandem siRNA-treated cells was performed as described in Example 2. BrDU and DAPI imaging was performed as described in Example 2. Intracellular p53 was visualized using anti-p53 antibody that is specific for activated p53 (i.e., p53 phosphorylated at Serine 33) (“α-Pser33-p53” provided by Yoichi Taya and described in Kishis et al., J. Biol. Chem., 276:39115-3922, 2001)
In FIG. 6A each line tracing represents FACS data from cells treated in tandem with the siRNAs directed to the gene products indicated above the line. Cells were first treated with siRNA directed to the gene product to the left of the slash. Up to 24 hours later, siRNA directed to the gene product to the right of the slash was added. […] 12 hours before collecting the cells, nocodazole was added to the cells analyzed in the bottom three line tracings. […]

Series [2] has as its system p53. Put plainly: Western blot of p53 in cytoplasmic and nuclear fractions. The conditions noted are these: relative to mock or silamin transfected cells; FIG. 6D. The text has this: The Western blot shown cytoplasmic (cyt), and nuclear (nuc) cell fractions blotted with an antibody to p53 (from Callbiochem, San Diego, Calif.). Nuclear fractions were blotted with an antibody for H1 as a control for loading.
A general note: In western blotting, separated proteins are transferred to a membrane and probed.

For series [3], the system named is RPE cells. Kind of series: BrDU staining of cells treated in tandem with two siRNAs (p53 dependence). The conditions noted are these: FIG. 6B. Here is the method:
(§2) To further study the effects of silencing centrosomal genes, the following cell cycle experiments were performed using RPE cells. In immunofluorescence experiments, cells were delivered by OLIGOFECTAMINE in a media solution containing between 1-100 nanomolar concentration of siRNAs. After 4 hours of incubation with lipofectamine, cells were washed, and cell cycle progression was assayed by (i) treating cells with 5-Bromo-2′-deoxyuridine (BrDU from Sigma, St Louis, Mo.) for 24 hours and staining for BrDU or (ii) staining cells with antibody to Ki-67 (BD Biosciences) according to manufacturer's instructions. BrDU treatment and staining were performed as follows: after 50-70 hours incubation with siRNA, BrDU was added to cells at a final concentration of 5 μg/ml. Cells were fixed in −20° C. methanol and then treated with 2N HCL at 22° C. for 30 minutes, incubated with 1:500 mouse anti-BrdU antibody (Becton Dickinson, Palo Alto, Calif.), and labeled with 1:1,000 goat FITC-mouse antibody (Molecular Probes, Inc.). Cells were also treated with 4′,6-diamidino-2-phenylindole (DAPI) (Molecular Probes) according to the manufacturer's instructions. Cells were prepared, imaged, and the resulting images were deconvolved as described in Example 1.
as §1

Series [4] deals with CDK2. Kind of series: CDK2 kinase assay from siRNA-treated cells. The conditions noted are these: after sustained siRNA treatment, vs siRNA to laminin; FIG. 2C. Here is the method: Kinase assays were done on RPE cells treated with siRNAs as described above. Treated cells were lysed in 1% NP-40 lysis buffer (NP-40 buffer: 20 mM NaPO4 pH 7.4, 1% NP-40, 250 mM NaCl, 5 mM ethylenediaminetetraacetic acid (EDTA), 5 mM dithiothreitol (DTT), 1 mM phenylmethylsulfonyl fluoride, 2 μg/ml leupeptin, and 1.5 μg/ml aprotinin) supplemented with 25 mM-glycerophosphate. For measurement of CDK2-associated activity in vitro, the complexes were immunoprecipitated for 2 hours at 4° C. using anti-cylin A antibody (Santa Cruz Biotechnology). Immunocomplexes were bound to protein A-Sepharose beads for an additional hour at 4° C. and washed four times with lysis buffer followed by one wash with the kinase buffer (20 mM Tris-HCl pH 7.5, 50 mM KCl, 7.5 mM MgCl 2, 1 mM DTT, 25 mM-glycerophosphate, 1 mM phenylmethylsulfonyl fluoride, 2 μg/ml leupeptin, and 1.5 μg/ml aprotinin). […] Phosphorylated proteins were analyzed on 10% SDS-polyacrylamide gels followed by autoradiography and quantified by phosphorimaging (Molecular Imager GS-250; Bio-Rad, Hercules, Calif.).
FIG. 2C is a graph quantifying the results of CDK2 kinase assays from cells treated with siRNA directed to laminin or pericentrin B. CDK2 activity is required for proliferating cells through to progress through the G1 stage of the cell cycle.

The test system of series [5] is RPE cells. Put plainly: BrDU incorporation after siRNA treatment and nocodazole synchronization. The conditions noted are these: relative to control cells (siRNA to lamin), after nocodazole release; FIG. 2A. As for the experimental part:
as §2
Upon release from nocodazole treatment, proliferating cells typically resume cell cycle progression. Chromosomal DNA in the cells was imaged using DAPI (faint ghost-like staining) and/or BrDU (brighter staining). Although DAPI can be used to visualize DNA at any stage of the cell cycle, BrDU is only incorporated into newly synthesized DNA only during S-phase. Thus, BrDU incorporation can be used as a marker of cells that progress through at least one S-phase of the cell cycle. Control cells in this experiment were treated with siRNA to lamin.

As to “GGACAAGGGUUGGGCUGGG (siRNA; RNA, 3' dTdT, backbone not given here) [sip53, siRNA directed to p53, reference compound]”, in series [1], the “effect of pre-treatment on siGCP2-mediated block of the nocodazole shift” value was “inhibited the siGCP-mediated block of the nocodazole shift”. Besides, the “nuclear p53 (Western blot)” value in series [2] is “nuclear p53 is activated”. In addition, the “effect of pretreatment on number of cells that divided after sipericentrin or siGCP2” value in series [3] (sip53 pretreatment, 6C) is “increased the number of cells that divided”.

Regarding “UUGGAACAGCUGCAGCAGA (siRNA; RNA, 3' dTdT, backbone not given here) [pericentrin B, siRNA directed only to pericentrin B (Kendrin)]”, in series [4], the “CDK2 expression and/or activity” value is reported as “greatly diminished”. Further, in series [5], the “incorporation of BrDU into chromosomal material” value is given as “clearly inhibited incorporation of BrDU”. Besides, the “cells incorporating BrDU” value in series [3] (tandem treatment silaminin then indicated siRNA, vs silamin/silamin) was “substantially fewer”.
